This note sets out measurements from patent publication US12419305B2, “Antimicrobial compositions” (Firmenich SA, priority 2018, dated 2025).

For test [1], the system named is S. haemolyticus 114126. As to the kind of experiment: BCT test (bacterial contact time), 120 s, log reduction / effect fraction; CI by Compusyn. Type of test: cell-based. The conditions noted are these: Staphylococcus haemolyticus, 114126, 2 min, contact 120 s, 25% EtOH; for log reduction at 0.5 % strength: dose 0.5% w/v. The method, then: S. haemolyticus: Suspensions of the S. haemolyticus 114126 strain, isolated from skin, were prepared as follows: Stock cultures (stored at −80° C.) were thawed and sub-cultured onto TSA-TW80 agar plate media, and incubated at 37° C. for 24 h to obtain single colonies. Single colonies of the primary cultures were streaked onto fresh TSA-TW80 plates and incubated at 37° C. for 24 h to prepare secondary cultures. Single colonies of secondary cultures were picked and used to inoculate 50 mL of BHI-TW80 broth. The inoculated broth was incubated at 37° C. at 180 rpm for 18 h. Aliquots (0.5 ml) of the 18 h culture were inoculated into 50 ml of fresh BHI-TW80 broth, and incubated at 37° C. at 180 rpm for approximately 3 hours. When the OD 600 nm value of the broth reached 1-2, cells were harvested by centrifugation at 5000 rpm for 10 min, and then resuspended in fresh BHI-TW80 broth at a concentration of 1-5×10^8 CFU/mL. This suspension was used as the bacterial suspension for the BCT test.
(§1) BCT Test: Test compositions at a range of concentrations (either combinations of more than one perfume ingredient, and comparative compositions comprising the single perfume ingredients) were prepared in ethanol. Five replicates of each test composition were added into 96-well microtiter plates (120 μl per well), with row B containing control compositions containing the ethanol solution alone. 120 μl of bacterial cell suspensions at a concentration of approximately 1×10^8 bacteria per mL (as prepared above) were added to each well of the microtiter plate. The bacterial suspensions were incubated with the test solutions for 45, 60, or 120 seconds. Following the incubation of the bacterial suspensions with the test solutions, serial dilutions of the bacterial suspensions were generated (three serial 1:10 dilutions, followed by 17 serial 1:2 dilutions), in multiwell microtiter plates.
(§2) Each plate was sealed and incubated at 37° C. under agitation (180 rpm). After incubation, the turbidity of the wells (OD600 nm) was determined using a Tecan microplate reader. Turbid wells were regarded as positive growth, due to the presence of viable cells. The total number of viable cells (log CFU) for each sample was calculated. And the log reduction for each test composition at the final concentration (dose) was calculated against the control sample of the ethanol solution.
(§3) Determination of Synergy via the Combination Index (CI): The CI was calculated using Compusyn software (ComboSyn, Inc., as created by Dr. Dorothy Chou in 2005), according to the manufacturer's instructions. The concentration of each test composition (combinations of more than one perfume ingredient, and comparative compositions comprising the single perfume ingredients used to generate the combination) and their corresponding effect fraction was entered, and the corresponding CI calculated.
(§4) When the calculated CI values were less than 0.9, the combination of perfume ingredients was regarded as having synergistic effect. When the calculated CI was between 1.0 a 0.9, the combination of perfume ingredients was regarded as having an additive effect. When the calculated CI was greater than 1.0, the combination of perfume ingredients was regarded as having an antagonistic effect.

For test [2], the system named is S. aureus ATCC 6538. As to the kind of experiment: BCT test (bacterial contact time), 60 s, log reduction / effect fraction; CI by Compusyn. The format is cell-based, Staphylococcus aureus. Particulars: Staphylococcus aureus, ATCC6538, 1 min, 60 s, in 25% EtOH. The method, then: (§5) E. coli, S. aureus, P. aeruginosa, and S. enterica: Separate suspensions of the E. coli ATCC 10536 strain, S. aureus ATCC 6538 strain, Pseudomonas aeruginosa ATCC 15442 strain, and the Salmonella enterica ATCC 10708 strain were prepared as follows: Stock cultures (stored at −80° C.) were thawed and sub-cultured onto Tryptic Soy Agar (TSA) agar plate media, and incubated at 37° C. for 24 h to obtain single colonies. Single colonies of the primary cultures were streaked onto TSA plates and incubated at 37° for 24 h to generate secondary cultures. Single colonies of secondary cultures picked and used to inoculate into 50 mL of TSB broth. The inoculated TSB broth was incubated at 37° C. at 180 rpm for 18 h. Aliquots (0.5 ml) of the 18 h culture were inoculated into 50 ml of fresh TSB broth, and incubated at 37° C. at 180 rpm for 2-3 hours. When the OD600 nm value of the broth reached 1-2, cells were harvested by centrifugation at 5000 rpm for 10 min, and then resuspended in fresh TSB broth at a concentration of 1-5×10^8 CFU/mL. These suspensions were used as the bacterial suspensions for the BCT test.
as §1, §2, §3, §4

Test [3] has as its system Pseudomonas aeruginosa ATCC 15442. Described as above. Type of test: cell-based. Particulars: Pseudomonas aeruginosa, ATCC15442, 1 min, BCT 60 s, in 25% EtOH; for log reduction at 0.25 % strength: Dose 0.25 % w/v; for log reduction at 0.4 % strength: Dose 0.4 % w/v; for log reduction at 0.5 % strength: Dose 0.5 % w/v. The method, then:
as §5, §1, §2, §3, §4

Test [4] concerns Salmonella enterica ATCC 10708. Described as above. Type of test: cell-based. The conditions noted are these: Salmonella enterica, ATCC10708, 1 min, BCT 60 s, in 25% EtOH; for log reduction at 0.25 % strength: Dose 0.25 % w/v; for log reduction at 0.3 % strength: Dose 0.3 % w/v. As for the experimental part: as §5, §1, §2, §3, §4

SMILES strings stand for the structures.

On to `Cc1ccc2c(c1)OCC(=O)CO2` [Calone, 7-methyl-2H-1,5-benzodioxepin-3(4H)-one], for which the log reduction at 0.5 % strength amounted to 0 in test [1] and 6.9 in test [3]. The log reduction at 0.7 % strength in test [1] (dose 0.7% w/v) is 0.5; in test [2] (dose 0.700 % w/v, read-out: Log reduction), 2.5. Moreover, the log reduction at 0.8 % strength amounted to 2.9 in test [1] (dose 0.8% w/v) and 6.9 in test [2] (dose 0.800 % w/v). Besides, the log reduction at 0.9 % strength in test [1] (dose 0.9% w/v) was 4.7; in test [2] (dose 0.900 % w/v), 6.9. Also, the log reduction at 1.2 % strength in test [1] (dose 1.2% w/v) was 6.9. The log reduction at 0.6 % strength in test [2] (dose 0.600 % w/v, read-out: Log reduction) was 1.6. Moreover, the log reduction at 1 % strength in test [2] (dose 1.000 % w/v, read-out: Log reduction) was 6.9. The log reduction at 0.25 % strength in test [3] (read-out: Log reduction) was 0.3; in test [4], 0.7. The log reduction at 0.3 % strength in test [3] (Dose 0.3 % w/v, read-out: Log reduction) came out at 1; in test [4], 2.7. For the same molecule, the log reduction at 0.35 % strength was 2.7 in test [3] (Dose 0.35 % w/v) and 4.2 in test [4] (Dose 0.350 % w/v). Further, the log reduction at 0.4 % strength is 4.3 in test [3] (read-out: Log reduction) and 7.2 in test [4] (Dose 0.4 % w/v). Further, the log reduction at 0.45 % strength in test [4] (Dose 0.450 % w/v) came out at 7.8.
For `CC(=O)OCc1ccccc1` [Benzyl acetate, benzyl acetate], the log reduction at 0.25 % strength came out at 0.2 in test [1] (dose 0.25% w/v, read-out: Log reduction); 0.8 in test [2] (dose 0.250 % w/v, read-out: Log reduction); 3.9 in test [3] (read-out: Log reduction); 6.5 in test [4]. Further, the log reduction at 0.3 % strength was determined as 0.5 in test [1] (dose 0.3% w/v, read-out: Log reduction); 1.9 in test [2] (dose 0.300 % w/v, read-out: Log reduction); 7.7 in test [4]. In addition, the log reduction at 0.35 % strength was 1.3 in test [1] (dose 0.35% w/v) and 5.1 in test [2] (dose 0.350 % w/v, read-out: Log reduction). In addition, the log reduction at 0.4 % strength stood at 2.5 in test [1] (dose 0.4% w/v, read-out: Log reduction); 6.7 in test [2] (dose 0.400 % w/v, read-out: Log reduction); 7.4 in test [3] (read-out: Log reduction). Moreover, the results for the log reduction at 0.5 % strength in test [1] and in test [3] were 6.2 and 7.4, respectively. Besides, the log reduction at 0.45 % strength in test [2] (dose 0.45 % w/v) came to 7.1; in test [3] (Dose 0.45 % w/v, read-out: Log reduction), 7.4. The log reduction at 0.2 % strength stood at 1.2 in test [3] (Dose 0.2 % w/v, read-out: Log reduction) and 1.9 in test [4] (Dose 0.2 % w/v). In test [4] (Dose 0.15 % w/v), the log reduction at 0.15 % strength came out at 0. Also, in test [4] (Dose 0.225 % w/v), the log reduction at 0.225 % strength was 5.
